Reference: US10800792B2, “Inhibitors of Bruton's tyrosine kinase and method of their use” (JANSSEN PHARMACEUTICA NV, priority 2015, dated 2020)

target: unphosphorylated-BTK kinase domain (UP-BTK), GST-tagged human BTK (389-659aa) (Homo sapiens (Human), UniProt Q06187); assay: BTK kinase Lanthascreen binding assay; conditions: Lanthascreen tracer competition, 60 minutes incubation; pIC50 = negative log of the IC50 in molar
How it was run: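 A fluorescent tracer is bound to unphosphorylated BTK; test compound is added to compete it off; the Lanthascreen signal is read and IC50 is fitted, then reported as its negative log in molar.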

Sequence of unphosphorylated-BTK kinase domain (UP-BTK), GST-tagged human BTK (389-659aa) (Q06187 389-659): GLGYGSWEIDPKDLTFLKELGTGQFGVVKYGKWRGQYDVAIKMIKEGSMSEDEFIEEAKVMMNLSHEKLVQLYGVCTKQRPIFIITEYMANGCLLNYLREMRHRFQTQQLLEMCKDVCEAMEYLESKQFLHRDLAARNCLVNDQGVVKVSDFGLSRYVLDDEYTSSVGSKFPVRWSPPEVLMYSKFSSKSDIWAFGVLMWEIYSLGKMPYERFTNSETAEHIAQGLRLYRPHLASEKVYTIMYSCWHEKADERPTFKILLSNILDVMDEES

Row | BTK_I_binding pIC50 | SMILES
1 | 5.7 | CO[C@H]1CN(C(=O)OC(C)(C)C)C[C@@H]1NC(=O)c1sc2nccc3c2c1NC(=O)N3c1ccc(Oc2ccccc2)cc1 [Example 639, (3S,4S)-tert-Butyl 3-methoxy-4-(4-oxo-5-(4-phenoxyphenyl)-4,5-dihydro-3H-1-thia-3,5,8-triazaacenaphthylene-2-carboxamido)pyrrolidine-1-carboxylate]
2 | 6.8 | Cc1nc(Oc2ccccc2)ccc1N1C(=O)Nc2c(C(=O)N[C@@H]3CCOC3)sc3nccc1c23 (single isomer, unassigned) [Example 793, (R)-5-(*S)-(2-Methy-6-phenoxypyridin-3-yl)-4-oxo-N-(tetrahydrofuran-3-yl)-4,5-dihydro-3H-1-thia-3,5,8-triazaacenaphthylene-2-carboxamide]
3 | 8.2 | C=CC(=O)N1CCC[C@@H](NC(=O)c2sc3nccc4c3c2NC(=O)N4c2ccc(Oc3ccccc3)nc2C)C1 [Example 670, (R)—N-(1-Acryloylpiperidin-3-yl)-5-(2-methyl-6-phenoxypyridin-3-yl)-4-oxo-4,5-dihydro-3H-1-thia-3,5,8-triazaacenaphthylene-2-carboxamide]
4 | 7.0 | COc1ccccc1Oc1ccc(N2C(=O)Nc3c(C(=O)NC4CCCN(C#N)C4)sc4nccc2c34)c(C)c1 (stereo not shown) [Example 883, N-(1-Cyanopiperidin-3-yl)-5-(4-(2-methoxyphenoxy)-2-methylphenyl)-4-oxo-4,5-dihydro-3H-1-thia-3,5,8-triazaacenaphthylene-2-carboxamide]
5 | 6.3 | Cc1nc(Oc2ccccc2)ncc1N1C(=O)Nc2c(C(=O)N[C@@H]3CCNC3)sc3nccc1c23 (single isomer, unassigned) [Example 715, (R)-5-(*S)-(4-Methyl-2-phenoxypyrimidin-5-yl)-4-oxo-N-(pyrrolidin-3-yl)-4,5-dihydro-3H-1-thia-3,5,8-triazaacenaphthylene-2-carboxamide]
6 | 8.2 | C=CC(=O)N1C[C@@H](O)C[C@@H](NC(=O)c2sc3nccc4c3c2NC(=O)N4c2cccc(-c3cccc(F)c3F)c2)C1 [Example 674, N-((3R,5S)-1-Acryloyl-5-hydroxypiperidin-3-yl)-5-(2′,3′-difluoro-[1,1′-biphenyl]-3-yl)-4-oxo-4,5-dihydro-3H-1-thia-3,5,8-triazaacenaphthylene-2-carboxamide]

same assay, conditions: pIC50 = negative log of the IC50 in molar; 60 minutes incubation, 50 nM Tracer 236

Row | BTK_I_binding pIC50 | SMILES
7 | 7.4 | CC#CC(=O)N1CCC[C@@H](NC(=O)c2sc3nccc4c3c2NC(=O)N4c2ccc(Oc3ccccc3)cc2C)C1 (single isomer, unassigned) [Example 55, (R)—N-(1-(But-2-ynoyl)piperidin-3-yl)-5-(*S)-(2-methyl-4-phenoxyphenyl)-4-oxo-4,5-dihydro-3H-1-thia-3,5,8-triazaacenaphthylene-2-carboxamide]
8 | 6.6 | Cc1cc(Oc2ccccc2)ccc1N1C(=O)Nc2c(C(=O)N[C@@H]3CCCN(C(=O)/C(F)=C/C4CC4)C3)sc3nccc1c23 [Example 228, (R,Z)—N-(1-(3-Cyclopropyl-2-fluoroacryloyl)piperidin-3-yl)-5-(2-methyl-4-phenoxyphenyl)-4-oxo-4,5-dihydro-3H-1-thia-3,5,8-triazaacenaphthylene-2-carboxamide]
9 | 7.1 | Cc1cc(Oc2ccccc2)ccc1N1C(=O)Nc2c(C(=O)N[C@@H]3CCCN(C(=O)[C@@H]4CCNC4)C3)sc3nccc1c23 [Example 191, 5-(2-Methyl-4-phenoxyphenyl)-4-oxo-N—((R)-1-((R)-pyrrolidine-3-carbonyl)piperidin-3-yl)-4,5-dihydro-3H-1-thia-3,5,8-triazaacenaphthylene-2-carboxamide]
10 | 6.6 | Cc1cc(Oc2ccccc2)ccc1N1C(=O)Nc2c(C(=O)NC3CCN(C)CC3C)sc3nccc1c23 (stereo not shown) [Example 165, N-(1,3-Dimethylpiperidin-4-yl)-5-(2-methyl-4-phenoxyphenyl)-4-oxo-4,5-dihydro-3H-1-thia-3,5,8-triazaacenaphthylene-2-carboxamide]
11 | 6.5 | Cc1cc(Oc2ccccc2O)ccc1N1C(=O)Nc2c(C(=O)N[C@@H]3CCCN(C)C3)sc3nccc1c23 [Example 220, (R)-5-(4-(2-Hydroxyphenoxy)-2-methylphenyl)-N-(1-methylpiperidin-3-yl)-4-oxo-4,5-dihydro-3H-1-thia-3,5,8-triazaacenaphthylene-2-carboxamide]
12 | 6.6 | Cc1cc(Oc2ccccc2)ccc1N1C(=O)Nc2c(C(=O)N[C@H]3CN(C)C[C@H]3O)sc3nccc1c23 [Example 200, N-((3S,4R)-4-Hydroxy-1-methylpyrrolidin-3-yl)-5-(2-methyl-4-phenoxyphenyl)-4-oxo-4,5-dihydro-3H-1-thia-3,5,8-triazaacenaphthylene-2-carboxamide]
13 | 6.4 | Cc1cc(OC2CCCCC2)ccc1N1C(=O)Nc2c(C(=O)N[C@@H]3CCCN(C)C3)sc3nccc1c23 [Example 250, (R)-5-(4-(Cyclohexyloxy)-2-methylphenyl)-N-(1-methylpiperidin-3-yl)-4-oxo-4,5-dihydro-3H-1-thia-3,5,8-triazaacenaphthylene-2-carboxamide]
14 | 7.0 | CCc1ccccc1Oc1ccc(N2C(=O)Nc3c(C(=O)N[C@@H]4CCCN(C)C4)sc4nccc2c34)c(C)c1 [Example 170, (R)-5-(4-(2-Ethylphenoxy)-2-methylphenyl)-N-(1-methylpiperidin-3-yl)-4-oxo-4,5-dihydro-3H-1-thia-3,5,8-triazaacenaphthylene-2-carboxamide]
15 | 6.5 | Cc1cc(Oc2ccccc2)ccc1N1C(=O)Nc2c(C(=O)NCCN3CCNC3=O)sc3nccc1c23 [Example 217, 5-(2-Methyl-4-phenoxyphenyl)-4-oxo-N-(2-(2-oxoimidazolidin-1-yl)ethyl)-4,5-dihydro-3H-1-thia-3,5,8-triazaacenaphthylene-2-carboxamide]
16 | 7.3 | Cc1cc(Oc2ccccc2)ccc1N1C(=O)Nc2c(C(=O)N[C@@H]3CCCN(C(=O)CN(C)C)C3)sc3nccc1c23 [Example 78, (R)—N-(1-(2-(Dimethylamino)acetyl)piperidin-3-yl)-5-(2-methyl-4-phenoxyphenyl)-4-oxo-4,5-dihydro-3H-1-thia-3,5,8-triazaacenaphthylene-2-carboxamide]

same assay, conditions: pIC50 = negative log of the IC50 in molar; 60 minutes incubation, 50 nM Tracer 236; read-out: BTK_I_binding pIC50 (converted)

Row | IC50 | SMILES
17 | 50.1 nM | Cc1cc(Oc2ccccc2)ccc1N1C(=O)Nc2c(C(=O)N[C@@H]3CCCN(C(=O)/C(C#N)=[13CH]/C4CC4)C3)sc3nccc1c23 [Example 41, (R,E)-N-(1-(2-Cyano-3-^13C-cyclopropylacryloyl)piperidin-3-yl)-5-(2-methyl-4-phenoxyphenyl)-4-oxo-4,5-dihydro-3H-1-thia-3,5,8-triazaacenaphthylene-2-carboxamide]

same assay, conditions: unphosphorylated-BTK kinase domain, 50 nM Tracer 236, 60 minutes; pIC50 = negative log of the IC50 in molar

Row | BTK_I_binding pIC50 | SMILES
18 | 5.0 | CN1CC[C@@H](NC(=O)c2sc3nccc4c3c2NC(=O)N4Cc2ccc(Oc3ccccc3)cc2)C1 [Example 409, (R)—N-(1-Methylpyrrolidin-3-yl)-4-oxo-5-(4-phenoxybenzyl)-4,5-dihydro-3H-1-thia-3,5,8-triazaacenaphthylene-2-carboxamide]
19 | 6.2 | Cc1cc(Oc2cc(F)cc(F)c2)ccc1N1C(=O)Nc2c(C(=O)N[C@@H]3CCCN(C)C3)sc3nccc1c23 [Example 286, (R)-5-(4-(3,5-Difluorophenoxy)-2-methylphenyl)-N-(1-methylpiperidin-3-yl)-4-oxo-4,5-dihydro-3H-1-thia-3,5,8-triazaacenaphthylene-2-carboxamide]
20 | <5 | Cc1cc(Oc2ccncc2)ccc1N1C(=O)Nc2c(C(=O)N[C@@H]3CCCN(C)C3)sc3nccc1c23 [Example 354, (R)-5-(2-Methyl-4-(pyridin-4-yloxy)phenyl)-N-(1-methylpiperidin-3-yl)-4-oxo-4,5-dihydro-3H-1-thia-3,5,8-triazaacenaphthylene-2-carboxamide]
21 | 7.5 | C=CC(=O)N1CCC[C@@H](NC(=O)c2sc3nccc4c3c2NC(=O)N4c2cccc(-c3ccc(C)cc3)c2)C1 [Example 521, (R)—N-(1-Acryloylpiperidin-3-yl)-5-(4′-methyl-[1,1′-biphenyl]-3-yl)-4-oxo-4,5-dihydro-3H-1-thia-3,5,8-triazaacenaphthylene-2-carboxamide]
22 | 5.4 | C=CC(=O)N1CCC[C@@H](NC(=O)c2sc3nccc4c3c2NC(=O)N4c2ccc(Cl)c(C(F)(F)F)c2)C1 [Example 362, (R)—N-(1-Acryloylpiperidin-3-yl)-5-(4-chloro-3-(trifluoromethyl)phenyl)-4-oxo-4,5-dihydro-3H-1-thia-3,5,8-triazaacenaphthylene-2-carboxamide]

same assay, conditions: unphosphorylated-BTK kinase domain, 60 minutes incubation, 50 nM Tracer 236; pIC50 = negative log of the IC50 in molar

Row | BTK_I_binding pIC50 | SMILES
23 | 6.1 | O=C(NCCN1CCCCC1)c1sc2nccc3c2c1NC(=O)N3c1ccc(Oc2ccccc2)cc1 [Example 932, 4-Oxo-5-(4-phenoxyphenyl)-N-(2-(piperidin-1-yl)ethyl)-4,5-dihydro-3H-1-thia-3,5,8-triazaacenaphthylene-2-carboxamide]
24 | 6.4 | COc1ccccc1Oc1ccc(N2C(=O)Nc3c(C(=O)NC4CCNCC4)sc4nccc2c34)c(C)c1 [Example 917, 5-(4-(2-Methoxyphenoxy)-2-methylphenyl)-4-oxo-N-(piperidin-4-yl)-4,5-dihydro-3H-1-thia-3,5,8-triazaacenaphthylene-2-carboxamide]
25 | 6.1 | CN1CC[C@H](NC(=O)c2sc3nccc4c3c2NC(=O)N4c2ccc(Oc3ccccc3)cc2)C1 [Example 931, (S)—N-(1-Methylpyrrolidin-3-yl)-4-oxo-5-(4-phenoxyphenyl)-4,5-dihydro-3H-1-thia-3,5,8-triazaacenaphthylene-2-carboxamide]
